What all share (assay): MIC, broth serial dilution in liquid YNB medium
For test [1], the system named is C. albicans 2043. The class given is cell-based, Candida albicans. As to conditions: YNB-Difco medium, 200 μg/ml sodium glutamate, 10^5 cells/ml, 30° C., 24 hours. The method, then: (§1) The minimum inhibiting concentrations (MIC) in mg/ml were determined for the compounds of Examples 1, 2, 7, 8, 12 and 13 against various Candida sp. using the broth serial dilution method of Milewski et al., Drugs Exp. Clin. Res., 1988, 14, 461. A liquid Yeast Nitrogen Base (YNB)-Difco medium containing 200 μg/ml sodium glutamate was used with a content of 10^5 cells/ml at a temperature of 30° C. and with an incubation time of 24 hours.

The test system of test [2] is C. famata 1940. It is filed as cell-based, Candida famata. As to conditions: YNB-Difco medium, 200 μg/ml sodium glutamate, 10^5 cells/ml, 30° C., 24 hours. The method, then: as §1
The subject of test [3] is C. glabrata. The class given is cell-based, Candida glabrata. As to conditions: YNB-Difco medium, 200 μg/ml sodium glutamate, 10^5 cells/ml, 30° C., 24 hours. How it is done: as §1
For test [4], the system named is C. albicans ATTC 26278. The class given is cell-based, Candida albicans. As to conditions: 30° C., 24 hours; for minimum inhibiting concentration (MIC), C. albicans ATTC 26278: YNB-Difco medium, 200 μg/ml sodium glutamate, 10^5 cells/ml; for minimum inhibiting concentration (MIC) against Candida albicans ATCC 26278: liquid YNB medium, monosodium glutamate 200 μg/ml. The method, then: The antifungal activity of the compounds has been determined by the serial dilution method in a liquid YNB (Yeast Nitrogen Base) medium containing monosodium glutamate at a concentration of 200 μg/ml, with a temperature of 30° C. and an incubation time of 24 hours.
as §1

Test [5] relates to C. krusei. It is filed as cell-based, Candida krusei. As to conditions: YNB-Difco medium, 200 μg/ml sodium glutamate, 10^5 cells/ml, 30° C., 24 hours. How it is done: as §1
[6] abbreviates: listed as N^2 -L-norvalyl-N^3-trans-2,3-epoxysuccinamoyl-L-2,3-diaminopropanoic acid in th.

In brackets after ≈: the same amount, converted by molar mass.

Turning to `CCC[C@H](NC(=O)[C@@H](N)CNC(=O)[C@@H]1O[C@H]1C(N)=O)C(=O)O` (relative stereo) [EADP--Nva, N^3 -D-trans-2,3-Epoxysuccinamoyl-L-2,3-diaminopropionyl-L-norvaline], the “minimum inhibiting concentration (MIC), C. albicans 2043” value in test [1] stood at 500 µg/mL (≈ 1580 µM). Besides, in test [2], the “minimum inhibiting concentration (MIC), C. famata 1940” value is 500 µg/mL (≈ 1580 µM). Further, the “minimum inhibiting concentration (MIC), C. glabrata” value in test [3] was 1000 µg/mL (≈ 3160 µM). Also, in test [4], the “minimum inhibiting concentration (MIC), C. albicans ATTC 26278” value was determined as 400 µg/mL (≈ 1260 µM). Moreover, the “minimum inhibiting concentration (MIC), C. krusei” value in test [5] came to 800 µg/mL (≈ 2530 µM).

As to `CCC[C@H](N)C(=O)N[C@@H](CNC(=O)[C@@H]1O[C@H]1C(N)=O)C(=O)O` (racemic) [Nva--DL--EADP, N^2 -L-Norvalyl-N^3 -DL-trans-2,3-epoxysuccinamoyl-L-2,3-diaminopropanoic acid], the “minimum inhibiting concentration (MIC), C. albicans 2043” value in test [1] was determined as 250 µg/mL (≈ 790 µM). In addition, the “minimum inhibiting concentration (MIC), C. famata 1940” value in test [2] worked out at 500 µg/mL (≈ 1580 µM). Also, the “minimum inhibiting concentration (MIC), C. glabrata” value in test [3] is 750 µg/mL (≈ 2370 µM). In test [4], the “minimum inhibiting concentration (MIC), C. albicans ATTC 26278” value was determined as 250 µg/mL (≈ 790 µM). Further, in test [4] (setting [6]), the “minimum inhibiting concentration (MIC) against Candida albicans ATCC 26278” value came to 0.25 µg/mL (≈ 0.79 µM). Moreover, the “minimum inhibiting concentration (MIC), C. krusei” value in test [5] was 350 µg/mL (≈ 1110 µM).

For `CCC[C@H](NC(=O)[C@@H](N)CNC(=O)[C@@H]1O[C@H]1C(N)=O)C(=O)O` (racemic) [DL--EADP--Nva, N^3 -DL-trans-2,3-Epoxysuccinamoyl-L-2,3-diaminopropionyl-L-norvaline], the “minimum inhibiting concentration (MIC), C. albicans 2043” value in test [1] came out at 750 µg/mL (≈ 2370 µM). The “minimum inhibiting concentration (MIC), C. famata 1940” value in test [2] came to 750 µg/mL (≈ 2370 µM). Moreover, the “minimum inhibiting concentration (MIC), C. glabrata” value in test [3] worked out at 1250 µg/mL (≈ 3950 µM). Also, the “minimum inhibiting concentration (MIC), C. albicans ATTC 26278” value in test [4] is 500 µg/mL (≈ 1580 µM). In addition, the “minimum inhibiting concentration (MIC), C. krusei” value in test [5] is 1000 µg/mL (≈ 3160 µM).

As to `CCC[C@H](NC(=O)[C@@H](N)CCCCN)C(=O)N[C@@H](CNC(=O)[C@@H]1O[C@H]1C(N)=O)C(=O)O` (racemic) [Lys--Nva--DL--EADP, N^2 -L-Lysyl-L-norvalyl-N^3 -DL-trans-2,3-epoxysuccinamoyl-L-2,3-diaminopropanoic acid], the “minimum inhibiting concentration (MIC), C. albicans 2043” value in test [1] amounted to 500 µg/mL (≈ 1120 µM). Also, the “minimum inhibiting concentration (MIC), C. famata 1940” value in test [2] amounted to 1000 µg/mL (≈ 2250 µM). Besides, in test [3], the “minimum inhibiting concentration (MIC), C. glabrata” value stood at 750 µg/mL (≈ 1690 µM). For the same compound, the “minimum inhibiting concentration (MIC), C. albicans ATTC 26278” value in test [4] was determined as 500 µg/mL (≈ 1120 µM). The “minimum inhibiting concentration (MIC), C. krusei” value in test [5] came out at 1500 µg/mL (≈ 3370 µM).

Turning to `CCC[C@H](N)C(=O)N[C@@H](CNC(=O)[C@@H]1O[C@H]1C(N)=O)C(=O)O` (relative stereo) [Nva--EADP, N^2 -L-Norvalyl-N^3 -D-trans-2,3-epoxysuccinamoyl-L-2,3-diaminopropanoic acid], the “minimum inhibiting concentration (MIC), C. albicans 2043” value in test [1] was determined as 100 µg/mL (≈ 316 µM). The “minimum inhibiting concentration (MIC), C. famata 1940” value in test [2] stood at 350 µg/mL (≈ 1110 µM). The “minimum inhibiting concentration (MIC), C. glabrata” value in test [3] was found to be 500 µg/mL (≈ 1580 µM). Moreover, the “minimum inhibiting concentration (MIC), C. albicans ATTC 26278” value in test [4] stood at 150 µg/mL (≈ 474 µM). Also, the “minimum inhibiting concentration (MIC) against Candida albicans ATCC 26278” value in test [4] (setting [6]) came to 0.15 µg/mL (≈ 0.474 µM). Besides, in test [5], the “minimum inhibiting concentration (MIC), C. krusei” value was 350 µg/mL (≈ 1110 µM).

`CCC[C@H](NC(=O)[C@@H](N)CCCCN)C(=O)N[C@@H](CNC(=O)[C@@H]1O[C@H]1C(N)=O)C(=O)O` (relative stereo) [Lys--Nva--EADP, N^2 -L-Lysyl-L-norvalyl-N^3 -D-trans-2,3-epoxysuccinamoyl-L-2,3-diaminopropanoic acid]: the “minimum inhibiting concentration (MIC), C. albicans 2043” value in test [1] was determined as 250 µg/mL (≈ 562 µM). Besides, in test [2], the “minimum inhibiting concentration (MIC), C. famata 1940” value came to 500 µg/mL (≈ 1120 µM). Besides, the “minimum inhibiting concentration (MIC), C. glabrata” value in test [3] is 500 µg/mL (≈ 1120 µM). Besides, in test [4], the “minimum inhibiting concentration (MIC), C. albicans ATTC 26278” value worked out at 200 µg/mL (≈ 450 µM). Also, the “minimum inhibiting concentration (MIC), C. krusei” value in test [5] worked out at 750 µg/mL (≈ 1690 µM).

Take `C[C@H](N)C(=O)N[C@@H](CNC(=O)[C@@H]1O[C@H]1C(N)=O)C(=O)O` (racemic) [Ala--DL--EADP, N^2 -L-alanyl-N^3 -DL-trans-2,3-epoxysuccinamoyl-L-2,3-diaminopropanoic acid, reference compound]: the “minimum inhibiting concentration (MIC), C. albicans 2043” value in test [1] is 1000 µg/mL (≈ 3470 µM). For the same compound, in test [3], the “minimum inhibiting concentration (MIC), C. glabrata” value came out at 1500 µg/mL (≈ 5200 µM). In test [4], the “minimum inhibiting concentration (MIC), C. albicans ATTC 26278” value came to 1200 µg/mL (≈ 4160 µM) and the “minimum inhibiting concentration (MIC) against Candida albicans ATCC 26278” value was determined as 1.2 µg/mL (≈ 4.16 µM).
